Data reported in US9604933B2, “Pyrazolochalcones as potential anticancer agents” (COUNCIL OF SCIENTIFIC AND INDUSTRIAL RESEARCH, priority 2013, dated 2017).
Like-named read-outs stand apart in the source and are kept apart here.

Assays:
[1] = system: K-562; assay: NCI SRB cytotoxicity, leukemia K-562; assay type: cell-based; conditions: Homo sapiens, K562, 48 h exposure
Procedure: (§1) The pyrazolochalcones (7e, 8e, 10e, 11e, 12e, 13e and 8f) have been tested against fifty nine human tumor cell lines derived from nine cancer types (leukemia, non-small cell lung cancer, colon cancer, CNS cancer, melanoma, ovarian cancer, renal cancer, prostate cancer and breast cancer) as per the NCI protocol. For each compound, dose response curves for individual cell lines have been measured at a minimum of five concentrations at 10 fold dilutions. A protocol of 48 h continuous drug exposure has been used, and a sulforhodamine B (SRB) protein assay has been used to estimate cell viability or growth. The concentration for 50% cell growth inhibition (GI50), 50% cell death (LC50, 50% growth) and total cell growth inhibition (TGI, 0% growth) values were tabulated (Table-1). DMSO was used as control to calculate the values of GI50, LC50 and TGI. The compounds 7e, 8e, 10e, 11e, 12e, 13e and 8f has been evaluated for their in vitro cytotoxicity in […] cell lines from nine human cancer types of leukemia (K-562, SR), non-small cell lung (Hop-62, NCI-H226, NCI-H522), colon (HCT-116, HCT-15, HCC-2998), CNS (SF-539), melanoma (SK-MEL-5, UACC-62, M14), ovarian (IGROV1), renal (A498), prostate (PC3) and breast (BT-549, MDA-MB-435, HS578T) origin. The results are expressed as percent of cell growth determined relative to that of untreated control cells (Table 2).

[2] = system: RPMI-8226; assay: NCI SRB cytotoxicity, leukemia RPMI-8226; assay type: cell-based; conditions: Homo sapiens, 48 h exposure
Procedure: as §1

[3] = system: HOP-62; assay: NCI SRB cytotoxicity, non-small cell lung HOP-62; assay type: cell-based; conditions: Homo sapiens, 48 h exposure
Procedure: as §1

[4] = system: HOP92; assay: NCI SRB cytotoxicity, non-small cell lung HOP92; assay type: cell-based; conditions: Homo sapiens, HOP-92, 48 h exposure
Procedure: as §1

[5] = system: NCIH322M; assay: NCI SRB cytotoxicity, non-small cell lung NCIH322M; assay type: cell-based; conditions: Homo sapiens, NCI-H322M, 48 h exposure
Procedure: as §1

[6] = system: HCT-116; assay: NCI SRB cytotoxicity, colon HCT-116; assay type: cell-based; conditions: Homo sapiens, 48 h exposure
Procedure: as §1

[7] = system: HT29; assay: NCI SRB cytotoxicity, colon HT29; assay type: cell-based; conditions: Homo sapiens, HT-29, 48 h exposure
Procedure: as §1

[8] = system: KM12; assay: NCI SRB cytotoxicity, colon KM12; assay type: cell-based; conditions: Homo sapiens, 48 h exposure
Procedure: as §1

[9] = system: SF-539; assay: NCI SRB cytotoxicity, CNS SF-539; assay type: cell-based; conditions: Homo sapiens, 48 h exposure
Procedure: as §1

[10] = system: SNB-19; assay: NCI SRB cytotoxicity, CNS SNB-19; assay type: cell-based; conditions: Homo sapiens, 48 h exposure
Procedure: as §1

[11] = system: LOX IMVI; assay: NCI SRB cytotoxicity, melanoma LOX IMVI; assay type: cell-based; conditions: Homo sapiens, 48 h exposure
Procedure: as §1

[12] = system: MALME-3M; assay: NCI SRB cytotoxicity, melanoma MALME-3M; assay type: cell-based; conditions: Homo sapiens, 48 h exposure
Procedure: as §1

[13] = system: MDA-MB-435; assay: NCI SRB cytotoxicity, melanoma MDA-MB-435; assay type: cell-based; conditions: Homo sapiens, Melanoma panel MDA-MB-435, 48 h exposure
Procedure: as §1

[14] = system: SK-MEL-2; assay: NCI SRB cytotoxicity, melanoma SK-MEL-2; assay type: cell-based; conditions: Homo sapiens, 48 h exposure
Procedure: as §1

[15] = system: UACC-62; assay: NCI SRB cytotoxicity, melanoma UACC-62; assay type: cell-based; conditions: Homo sapiens, 48 h exposure
Procedure: as §1

[16] = system: IGROV1; assay: NCI SRB cytotoxicity, ovarian IGROV1; assay type: cell-based; conditions: Homo sapiens, IGROV-1, 48 h exposure
Procedure: as §1

[17] = system: OVCAR-4; assay: NCI SRB cytotoxicity, ovarian OVCAR-4; assay type: cell-based; conditions: Homo sapiens, 48 h exposure
Procedure: as §1

[18] = system: OVCAR-8; assay: NCI SRB cytotoxicity, ovarian OVCAR-8; assay type: cell-based; conditions: Homo sapiens, 48 h exposure
Procedure: as §1

[19] = system: NCI/ADR-RES; assay: NCI SRB cytotoxicity, ovarian NCI/ADR-RES; assay type: cell-based; conditions: Homo sapiens, 48 h exposure
Procedure: as §1

[20] = system: SN12C; assay: NCI SRB cytotoxicity, renal SN12C; assay type: cell-based; conditions: Homo sapiens, 48 h exposure
Procedure: as §1

[21] = system: UO-31; assay: NCI SRB cytotoxicity, renal UO-31; assay type: cell-based; conditions: Homo sapiens, 48 h exposure
Procedure: as §1

[22] = system: Non-small cell lung; assay: NCI SRB cytotoxicity, non-small cell lung panel average; assay type: cell-based, human; conditions: average of cell lines; for LC50: read-out: Log10 LC50 (concentration in mol/L causing 50% cell death) (converted)
Procedure: as §1
(§2) Each cancer type represents the average of six to eight different cancer cell lines.

[23] = system: Colon; assay: NCI SRB cytotoxicity, colon panel average; assay type: cell-based, human; conditions: average of cell lines; for LC50: read-out: Log10 LC50 (concentration in mol/L causing 50% cell death) (converted)
Procedure: as §1, §2

[24] = system: CNS; assay: NCI SRB cytotoxicity, CNS panel average; assay type: cell-based, human; conditions: average of cell lines; for LC50: read-out: Log10 LC50 (concentration in mol/L causing 50% cell death) (converted)
Procedure: as §1, §2

[25] = system: Melanoma; assay: NCI SRB cytotoxicity, melanoma panel average; assay type: cell-based, human; conditions: average of cell lines; for LC50: read-out: Log10 LC50 (concentration in mol/L causing 50% cell death) (converted)
Procedure: as §1, §2

[26] = system: human tumor cell lines; assay: NCI SRB cytotoxicity, all fifty nine human tumor cell lines; assay type: cell-based; parameters: Log10 TGI mean graph midpoint (MG_MID): unit not given here; conditions: for GI50: Homo sapiens; for cytotoxicity: against cancer cell lines, in words; for LC50: read-out: Log10 LC50 mean graph midpoint (MG_MID) (converted)
Procedure: as §1
The mean graph midpoint values of Log10 TGI and Log10 LC50 as well as Log10 GI50 for compounds 7e, 8e, 10e, 11e, 12e, 13e and 8f is listed in Table-3. […] The mean graph mid points of Log10 TGI and Log10, LC50 have shown similar pattern to the log10 GI50 mean graph mid points.

[27] = system: DU-145; assay: NCI SRB cytotoxicity, prostate DU-145; assay type: cell-based; conditions: Homo sapiens, 48 h exposure
Procedure: as §1

[28] = Homo sapiens, read-out: Log10 GI50 (concentration in mol/L causing 50% growth inhibition) (converted)
[29] = across fifty nine cell lines in nine cell panels, read-out: GI50 value range
[30] = against human tumor cell lines, read-out: Log10 GI50 mean graph midpoint (MG_MID) (converted)

| SMILES | GI50 [1] [µM] | GI50 [2] [µM] | GI50 [3] [µM] | GI50 [5] [µM] | GI50 [6] [µM] | GI50 [7] [µM] | GI50 [8] [µM] | GI50 [9] [µM] | GI50 [10] [µM] | GI50 [11] [µM] | GI50 [12] [µM] | GI50 [13] [µM] | GI50 [14] [µM] | GI50 [15] [µM] | GI50 [16] [µM] | GI50 [17] [µM] | GI50 [18] [µM] | GI50 [19] [µM] | GI50 [20] [µM] | GI50 [21] [µM] | also measured |
| --- | --- | --- | --- | --- | --- | --- | --- | --- | --- | --- | --- | --- | --- | --- | --- | --- | --- | --- | --- | --- | --- |
| COc1cc(-c2cc(/C=C/C(=O)c3ccc(Cl)c(Cl)c3)[nH]n2)cc(OC)c1OC [12e, (E)-1-(3,4-dichlorophenyl)-3-(3-(3,4,5-trimethoxyphenyl)-1H-pyrazol-5-yl)prop-2-en-1-one] | 4.96 | 0.53 | 1.72 | 14.5 | 2.95 | 1.15 | 3.37 | 4.31 | 9.83 | 3.39 | 29.2 | 5.65 | 13.9 | 18.8 | 24 | 10.8 | 6.3 | 10.6 | 13.7 | 5.73 | GI50 [4]: 2.53 µM; GI50 [22, 28]: 6.61 µM; LC50 ([22]; Homo sapiens): 200 µM; Log10 TGI (concentration in mol/L causing total growth inhibition (0% growth)) [22]: −4.52 mol/L; GI50 [23, 28]: 4.79 µM; LC50 ([23]; Homo sapiens): 100 µM; Log10 TGI (concentration in mol/L causing total growth inhibition) [23]: −4.34 mol/L; GI50 [24, 28]: 8.51 µM; LC50 ([24]; Homo sapiens): 87.1 µM; Log10 TGI (concentration in mol/L causing total growth inhibition (0% growth)) [24]: −4.25 mol/L; GI50 [25, 28]: 13.2 µM; LC50 ([25]; Homo sapiens): 95.5 µM; Log10 TGI (concentration in mol/L causing total growth inhibition) [25]: −4.21 mol/L; GI50 [26, 29]: 0.18 to 29.2 µM; GI50 [26, 30]: 6.61 µM; cytotoxicity [26]: significant cytotoxicity; Log10 TGI mean graph midpoint (MG_MID) ([26]; against human tumor cell lines): −4.35; LC50 ([26]; against human tumor cell lines): 89.1 µM |
| COc1cc(-c2cc(/C=C/C(=O)c3ccc4c(c3)OCO4)[nH]n2)cc(OC)c1OC [11e, (E)-1-(benzo[d][1,3]dioxol-5-yl)-3-(3-(3,4,5-trimethoxyphenyl)-1H-pyrazol-5-yl)prop-2-en-1-one] | 3.2 | 0.51 | 2.18 | 3.01 | 1.85 | 2.18 | 1.76 | 2.07 | 4.3 | 1.82 | 4.42 | 2.39 | 10.3 | 4.67 | 5 | 3.8 | 2.85 | 4.23 | 3.94 | 1.91 | GI50 [27]: 2.72 µM; LC50 ([22]; Homo sapiens): 53.7 µM; Log10 GI50 (concentration in mol/L causing 50% growth inhibition) [22]: −4.27 mol/L; Log10 TGI (concentration in mol/L causing total growth inhibition (0% growth)) [22]: −4.70 mol/L; LC50 ([23]; Homo sapiens): 21.9 µM; Log10 GI50 (concentration in mol/L causing 50% growth inhibition) [23]: −4.66 mol/L; Log10 TGI (concentration in mol/L causing total growth inhibition) [23]: −5.33 mol/L; LC50 ([24]; Homo sapiens): 63.1 µM; Log10 GI50 (concentration in mol/L causing 50% growth inhibition) [24]: −4.2 mol/L; Log10 TGI (concentration in mol/L causing total growth inhibition (0% growth)) [24]: −4.83 mol/L; LC50 ([25]; Homo sapiens): 72.4 µM; Log10 GI50 (concentration in mol/L causing 50% growth inhibition) [25]: −4.14 mol/L; Log10 TGI (concentration in mol/L causing total growth inhibition) [25]: −4.52 mol/L; GI50 [26, 29]: 0.18 to 29.2 µM; GI50 [26, 30]: 2.69 µM; cytotoxicity [26]: significant cytotoxicity; Log10 TGI mean graph midpoint (MG_MID) ([26]; against human tumor cell lines): −4.77; LC50 ([26]; against human tumor cell lines): 61.7 µM |
